Measured values published in patent US11608323B2 (SYNGENTA LIMITED, priority 2013, dated 2023).

How the values were obtained:
Format in all cases: in vivo
ABUTH [1] = experiment: Pre-emergence herbicidal activity, glasshouse pot test; settings: rate 1000 g/Ha, evaluated after 13 days, scale 0-5
Protocol: (§1) Seeds of a variety of test species were sown in standard soil in pots. After cultivation for one day (pre-emergence) under controlled conditions in a glasshouse (at 24/16° C., day/night; 14 hours light; 65% humidity), the plants were sprayed with an aqueous spray solution derived from the formulation of the technical active ingredient in acetone/water (50:50) solution containing 0.5% Tween 20 (polyoxyethelyene sorbitan monolaurate, CAS RN 9005-64-5). The test plants were then grown in a glasshouse under controlled conditions (at 24/16° C., day/night; 14 hours light; 65% humidity) and watered twice daily. After 13 days, the test was evaluated (5=total damage to plant; 0=no damage to plant).

AMARE [2] = experiment: as above; settings: rate 1000 g/Ha, evaluated after 13 days, scale 0-5
Protocol: as §1

ECHCG [3] = experiment: as above; settings: rate 1000 g/Ha, evaluated after 13 days, scale 0-5
Protocol: as §1

SETFA [4] = experiment: as above; settings: rate 1000 g/Ha, evaluated after 13 days, scale 0-5
Protocol: as §1

ZEAMX [5] = experiment: as above; settings: rate 1000 g/Ha, evaluated after 13 days, scale 0-5
Protocol: as §1

ABUTH [6] = experiment: Post-emergence herbicidal activity, glasshouse pot test; settings: Abutilon theophrasti; application post-emergence; rate 1000 g/Ha; evaluated after 13 days
Protocol: (§2) Seeds of a variety of test species were sown in standard soil in pots. After 8 days cultivation (post-emergence) under controlled conditions in a glasshouse (at 24/16° C., day/night; 14 hours light; 65% humidity), the plants were sprayed with an aqueous spray solution derived from the formulation of the technical active ingredient in acetone/water (50:50) solution containing 0.5% Tween 20 (polyoxyethelyene sorbitan monolaurate, CAS RN 9005-64-5). The test plants were then grown in a glasshouse under controlled conditions (at 24/16° C., day/night; 14 hours light; 65% humidity) and watered twice daily. After 13 days, the test was evaluated (5=total damage to plant; 0=no damage to plant).

AMARE [7] = experiment: as above; settings: Amaranthus retroflexus; application post-emergence; rate 1000 g/Ha; evaluated after 13 days
Protocol: as §2

ECHCG [8] = experiment: as above; settings: Echinochloa crus-galli; application post-emergence; rate 1000 g/Ha; evaluated after 13 days
Protocol: as §2

SETFA [9] = experiment: as above; settings: Setaria faberi; application post-emergence; rate 1000 g/Ha; evaluated after 13 days
Protocol: as §2

ZEAMX [10] = experiment: as above; settings: Zea mays; application post-emergence; rate 1000 g/Ha; evaluated after 13 days
Protocol: as §2

| Compound | ABUTH damage score, application pre-emergence (ABUTH [1]) | AMARE damage score, application pre-emergence (AMARE [2]) | ECHCG damage score, application pre-emergence (ECHCG [3]) | SETFA damage score, application pre-emergence (SETFA [4]) | ZEAMX damage score, application pre-emergence (ZEAMX [5]) | Post-emergence herbicidal activity ABUTH (damage score 0-5) (ABUTH [6]) | Post-emergence herbicidal activity AMARE (damage score 0-5) (AMARE [7]) | Post-emergence herbicidal activity ECHCG (damage score 0-5) (ECHCG [8]) | Post-emergence herbicidal activity SETFA (damage score 0-5) (SETFA [9]) | Post-emergence herbicidal activity ZEAMX (damage score 0-5) (ZEAMX [10]) |
| --- | --- | --- | --- | --- | --- | --- | --- | --- | --- | --- |
| CC1C(O)N(c2cc(C(F)F)ccn2)C(=O)N1C (stereo not drawn) [Compound A84] | 5 | 5 | 5 | 5 | 3 | 5 | 5 | 5 | 5 | 4 |
| CON1C(=O)N(c2ccc(C(=O)NC(C)(C)C)cn2)C(O)C1C (stereo not drawn) [Compound A66] | 5 | 5 | 5 | 4 | 2 | 5 | 5 | 5 | 5 | 5 |
| COCCOCc1cnc(N2C(=O)N(C)C(C)C2O)cc1C(F)(F)F (stereo not drawn) [Compound A108] | 5 | 5 | 5 | 4 | 2 | 5 | 5 | 5 | 5 | 5 |
| CCOC1C(O)N(c2ccc(C(F)(F)F)cn2)C(=O)N1C (stereo not drawn) [Compound A83] | 5 | 5 | 4 | 4 | 1 | 5 | 5 | 1 | 4 | 1 |
| CON1C(=O)N(c2cc(C(C)(F)F)ccn2)C(O)C1C (single isomer, unassigned) [Compound A93] | 5 | 5 | 5 | 5 | 3 | 5 | 5 | 5 | 5 | 4 |
| CON1C(=O)N(c2cc(C(F)(F)F)ccn2)C(NCc2ccccc2)[C@@H]1C (stereo partly drawn) [Compound A104] | 4 | 5 | 5 | 5 | 3 | 5 | 5 | 5 | 5 | 5 |
| CCO[C@H]1C(O)N(c2cc(C(F)(F)F)ccn2)C(=O)N1C (single isomer, unassigned) [Compound A35] | 4 | 5 | 4 | 4 | 2 | 0 | 5 | 3 | 3 | 1 |
| O=C1N2COCC2C(O)N1c1cc(C(F)(F)F)ccn1 (single isomer, unassigned) [Compound A94] | 5 | 5 | 5 | 5 | 4 | 5 | 5 | 5 | 5 | 5 |
| CON1C(=O)N(c2cc(C(F)(F)Cl)ccn2)C(O)[C@@H]1C (stereo partly drawn) [Compound A90] | 3 | 5 | 4 | 4 | 2 | 5 | 5 | 5 | 5 | 5 |
| CC1C(O)N(c2cc(Cl)c(C(=O)NC(C)(C)C)cn2)C(=O)N1C (stereo not drawn) [Compound A71] | 5 | 5 | 5 | 0 | 3 | 5 | 5 | 5 | 5 | 4 |
| CN1C(=O)N(c2cc(C(F)(F)F)ccn2)C(O)C1CC(F)(F)F (stereo not drawn) [Compound A68] | 0 | 0 | 0 | 0 | 0 | 0 | 0 | 0 | 0 | 0 |
| CC1C(O)N(c2ccc(C(F)(F)F)cn2)C(=O)N1C (stereo not drawn) [Compound A74] | 5 | 5 | 4 | 4 | 3 | 5 | 5 | 4 | 5 | 3 |
| C=CCN1C(=O)N(c2cc(C(F)(F)F)ccn2)C(O)C1C (stereo not drawn) [Compound A107] | 5 | 5 | 5 | 4 | 2 | 5 | 5 | 5 | 5 | 3 |
| CCO[C@H]1[C@H](OC(=O)[C@](OC)(c2ccccc2)C(F)(F)F)N(c2cc(C(F)(F)F)ccn2)C(=O)N1C [Compound A103] | 1 | 2 | 1 | 4 | 1 | 0 | 2 | 0 | 1 | 1 |
| CON1C(=O)N(c2cc(C(F)(F)F)c(C)cn2)C(O)[C@@H]1C (stereo partly drawn) [Compound A79] | 5 | 5 | 5 | 5 | 2 | 5 | 5 | 5 | 5 | 4 |
